Test results as given in PubChem BioAssay (NCI).
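48-hour exposure; five concentrations; linearly interpolated endpoints. TGI: total growth inhibition.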

Columns and labels:
Experiment in all cases: growth of human tumour cells (NCI), 48 h
NCI-H460 lung = tested on: NCI-H460 lung
MALME-3M melanoma = tested on: MALME-3M melanoma
DMS 273 small cell lung = tested on: DMS 273 small cell lung
CCRF-CEM leukemia = tested on: CCRF-CEM leukemia
A549 NSCLC = tested on: A549 NSCLC
HCT-15 colon = tested on: HCT-15 colon
SF-539 CNS = tested on: SF-539 CNS
OVCAR-8 ovarian = tested on: OVCAR-8 ovarian
NCI-H522 lung = tested on: NCI-H522 lung
SR leukemia = tested on: SR leukemia
OVCAR-3 ovarian = tested on: OVCAR-3 ovarian
IGROV1 ovarian = tested on: IGROV1 ovarian
SNB-75 CNS = tested on: SNB-75 CNS
SK-MEL-28 melanoma = tested on: SK-MEL-28 melanoma
OVCAR-5 ovarian = tested on: OVCAR-5 ovarian
LOX IMVI melanoma = tested on: LOX IMVI melanoma
DLD-1 colon = tested on: DLD-1 colon
LXFL 529 NSCLC = tested on: LXFL 529 NSCLC
EKVX NSCLC = tested on: EKVX NSCLC
DMS 114 small cell lung = tested on: DMS 114 small cell lung
KM12 colon = tested on: KM12 colon
HL-60(TB) leukemia = tested on: HL-60(TB) leukemia
UO-31 renal = tested on: UO-31 renal
SN12C renal = tested on: SN12C renal
COLO 205 colon = tested on: COLO 205 colon
U251 CNS = tested on: U251 CNS
HCT-116 colon = tested on: HCT-116 colon
786-0 renal = tested on: 786-0 renal
M14 melanoma = tested on: M14 melanoma
TK-10 renal = tested on: TK-10 renal
OVCAR-4 ovarian = tested on: OVCAR-4 ovarian
SW-620 colon = tested on: SW-620 colon
ACHN renal = tested on: ACHN renal
MOLT-4 leukemia = tested on: MOLT-4 leukemia
A498 renal = tested on: A498 renal
SF-268 CNS = tested on: SF-268 CNS
SNB-19 CNS = tested on: SNB-19 CNS
M19-MEL melanoma = tested on: M19-MEL melanoma
KM20L2 colon = tested on: KM20L2 colon
HOP-62 NSCLC = tested on: HOP-62 NSCLC
SK-MEL-5 melanoma = tested on: SK-MEL-5 melanoma
HOP-18 NSCLC = tested on: HOP-18 NSCLC
RXF 393 renal = tested on: RXF 393 renal
SK-MEL-2 melanoma = tested on: SK-MEL-2 melanoma
RXF-631 renal = tested on: RXF-631 renal
UACC-257 melanoma = tested on: UACC-257 melanoma
K-562 leukemia = tested on: K-562 leukemia
HT29 colon = tested on: HT29 colon
HCC-2998 colon = tested on: HCC-2998 colon
UACC-62 melanoma = tested on: UACC-62 melanoma
SK-OV-3 ovarian = tested on: SK-OV-3 ovarian
SNB-78 CNS = tested on: SNB-78 CNS
NCI-H23 lung = tested on: NCI-H23 lung
SF-295 CNS = tested on: SF-295 CNS
CAKI-1 renal = tested on: CAKI-1 renal
NCI-H226 lung = tested on: NCI-H226 lung
HOP-92 NSCLC = tested on: HOP-92 NSCLC
HS 578T breast = tested on: HS 578T breast
MDA-MB-231 breast = tested on: MDA-MB-231 breast
PC-3 prostate = tested on: PC-3 prostate
MCF7 breast = tested on: MCF7 breast
T-47D breast = tested on: T-47D breast
MDA-MB-435 = tested on: MDA-MB-435
MDA-N = tested on: MDA-N
RPMI-8226 leukemia = tested on: RPMI-8226 leukemia
DU-145 prostate = tested on: DU-145 prostate
BT-549 breast = tested on: BT-549 breast
NCI/ADR-RES ovarian = tested on: NCI/ADR-RES ovarian

Structure (SMILES): O=C(O)Cn1c(=O)[nH]c(=O)c2[nH]cnc21
- TGI (NCI-H460 lung): > 100 µM
- TGI (MALME-3M melanoma): > 100 µM
- TGI (DMS 273 small cell lung): > 100 µM
- TGI (CCRF-CEM leukemia): > 100 µM
- TGI (A549 NSCLC): > 100 µM
- TGI (HCT-15 colon): > 100 µM
- TGI (SF-539 CNS): > 100 µM
- TGI (OVCAR-8 ovarian): > 100 µM
- TGI (NCI-H522 lung): > 100 µM
- TGI (SR leukemia): > 100 µM
- TGI (OVCAR-3 ovarian): > 100 µM
- TGI (IGROV1 ovarian): > 100 µM
- TGI (SNB-75 CNS): > 100 µM
- TGI (SK-MEL-28 melanoma): > 100 µM
- TGI (OVCAR-5 ovarian): > 100 µM
- TGI (LOX IMVI melanoma): > 100 µM
- TGI (DLD-1 colon): > 100 µM
- TGI (LXFL 529 NSCLC): > 100 µM
- TGI (EKVX NSCLC): > 100 µM
- TGI (DMS 114 small cell lung): > 100 µM
- TGI (KM12 colon): > 100 µM
- TGI (HL-60(TB) leukemia): > 100 µM
- TGI (UO-31 renal): > 100 µM
- TGI (SN12C renal): > 100 µM
- TGI (COLO 205 colon): > 100 µM
- TGI (U251 CNS): > 100 µM
- TGI (HCT-116 colon): > 100 µM
- TGI (786-0 renal): > 100 µM
- TGI (M14 melanoma): > 100 µM
- TGI (TK-10 renal): > 100 µM
- TGI (OVCAR-4 ovarian): > 100 µM
- TGI (SW-620 colon): > 100 µM
- TGI (ACHN renal): > 100 µM
- TGI (MOLT-4 leukemia): > 100 µM
- TGI (A498 renal): > 100 µM
- TGI (SF-268 CNS): > 100 µM
- TGI (SNB-19 CNS): > 100 µM
- TGI (M19-MEL melanoma): > 100 µM
- TGI (KM20L2 colon): > 100 µM
- TGI (HOP-62 NSCLC): > 100 µM
- TGI (SK-MEL-5 melanoma): > 100 µM
- TGI (HOP-18 NSCLC): > 100 µM
- TGI (RXF 393 renal): > 100 µM
- TGI (SK-MEL-2 melanoma): > 100 µM
- TGI (RXF-631 renal): > 100 µM
- TGI (UACC-257 melanoma): > 100 µM
- TGI (K-562 leukemia): > 100 µM
- TGI (HT29 colon): > 100 µM
- TGI (HCC-2998 colon): > 100 µM
- TGI (UACC-62 melanoma): > 100 µM
- TGI (SK-OV-3 ovarian): > 100 µM
- TGI (SNB-78 CNS): > 100 µM
- TGI (NCI-H23 lung): > 100 µM

Structure (SMILES): CCOC(=O)c1[nH]c(CN(C)Cc2[nH]c(C(=O)OCC)c(C)c2C(=O)OCc2ccccc2)c(C(=O)OCc2ccccc2)c1C
- TGI (NCI-H460 lung): 62.2 µM
- TGI (MALME-3M melanoma): > 100 µM
- TGI (DMS 273 small cell lung): 35 µM
- TGI (CCRF-CEM leukemia): > 100 µM
- TGI (A549 NSCLC): 98.2 µM
- TGI (HCT-15 colon): > 100 µM
- TGI (SF-539 CNS): 21.3 µM
- TGI (OVCAR-8 ovarian): > 100 µM
- TGI (SF-295 CNS): > 100 µM
- TGI (NCI-H522 lung): 36.7 µM
- TGI (SR leukemia): > 100 µM
- TGI (OVCAR-3 ovarian): 28.3 µM
- TGI (IGROV1 ovarian): > 100 µM
- TGI (SNB-75 CNS): 19.3 µM
- TGI (SK-MEL-28 melanoma): > 100 µM
- TGI (OVCAR-5 ovarian): 44.8 µM
- TGI (LOX IMVI melanoma): > 100 µM
- TGI (DLD-1 colon): > 100 µM
- TGI (CAKI-1 renal): 23.8 µM
- TGI (LXFL 529 NSCLC): > 100 µM
- TGI (EKVX NSCLC): 42.5 µM
- TGI (DMS 114 small cell lung): > 100 µM
- TGI (KM12 colon): 54.9 µM
- TGI (HL-60(TB) leukemia): > 100 µM
- TGI (UO-31 renal): > 100 µM
- TGI (SN12C renal): 34.5 µM
- TGI (COLO 205 colon): > 100 µM
- TGI (U251 CNS): 34 µM
- TGI (HCT-116 colon): 38 µM
- TGI (NCI-H226 lung): 32.7 µM
- TGI (786-0 renal): 36.2 µM
- TGI (M14 melanoma): 29.1 µM
- TGI (TK-10 renal): 43.8 µM
- TGI (OVCAR-4 ovarian): 32.1 µM
- TGI (SW-620 colon): > 100 µM
- TGI (ACHN renal): > 100 µM
- TGI (MOLT-4 leukemia): > 100 µM
- TGI (A498 renal): 34.9 µM
- TGI (SF-268 CNS): > 100 µM
- TGI (SNB-19 CNS): 42.2 µM
- TGI (KM20L2 colon): 14.1 µM
- TGI (HOP-62 NSCLC): 89.7 µM
- TGI (SK-MEL-5 melanoma): 22.2 µM
- TGI (HOP-18 NSCLC): > 100 µM
- TGI (RXF 393 renal): 22.3 µM
- TGI (RXF-631 renal): 43.4 µM
- TGI (HOP-92 NSCLC): 8.73 µM
- TGI (UACC-257 melanoma): > 100 µM
- TGI (K-562 leukemia): > 100 µM
- TGI (HT29 colon): 8.01 µM
- TGI (HCC-2998 colon): > 100 µM
- TGI (UACC-62 melanoma): 85.3 µM
- TGI (SNB-78 CNS): > 100 µM
- TGI (NCI-H23 lung): 42 µM

Structure (SMILES): COc1ccc(Cl)cc1NC(=O)c1cccc([N+](=O)[O-])c1O
- TGI (HS 578T breast): 70.2 µM
- TGI (NCI-H460 lung): > 81.2 µM
- TGI (MALME-3M melanoma): 19.3 µM
- TGI (CCRF-CEM leukemia): > 100 µM
- TGI (A549 NSCLC): 45.2 µM
- TGI (MDA-MB-231 breast): > 100 µM
- TGI (HCT-15 colon): > 100 µM
- TGI (SF-539 CNS): 33 µM
- TGI (OVCAR-8 ovarian): > 100 µM
- TGI (SF-295 CNS): 55.3 µM
- TGI (NCI-H522 lung): 38.6 µM
- TGI (SR leukemia): > 76.1 µM
- TGI (OVCAR-3 ovarian): 33 µM
- TGI (IGROV1 ovarian): > 92.5 µM
- TGI (SNB-75 CNS): > 88.3 µM
- TGI (SK-MEL-28 melanoma): > 91.4 µM
- TGI (OVCAR-5 ovarian): > 100 µM
- TGI (LOX IMVI melanoma): > 84.2 µM
- TGI (DLD-1 colon): > 100 µM
- TGI (CAKI-1 renal): > 64.8 µM
- TGI (LXFL 529 NSCLC): > 100 µM
- TGI (EKVX NSCLC): 51.4 µM
- TGI (KM12 colon): > 72 µM
- TGI (HL-60(TB) leukemia): > 69.6 µM
- TGI (UO-31 renal): 39.8 µM
- TGI (PC-3 prostate): > 100 µM
- TGI (SN12C renal): > 75.3 µM
- TGI (MCF7 breast): 66.2 µM
- TGI (T-47D breast): > 100 µM
- TGI (COLO 205 colon): 32 µM
- TGI (MDA-MB-435): > 100 µM
- TGI (U251 CNS): > 62.7 µM
- TGI (HCT-116 colon): 43.3 µM
- TGI (NCI-H226 lung): 64.9 µM
- TGI (MDA-N): > 100 µM
- TGI (786-0 renal): 58.7 µM
- TGI (M14 melanoma): > 100 µM
- TGI (TK-10 renal): > 100 µM
- TGI (OVCAR-4 ovarian): > 88.3 µM
- TGI (RPMI-8226 leukemia): > 69.5 µM
- TGI (SW-620 colon): > 100 µM
- TGI (ACHN renal): > 70.4 µM
- TGI (DU-145 prostate): > 100 µM
- TGI (MOLT-4 leukemia): > 100 µM
- TGI (BT-549 breast): 27.4 µM
- TGI (A498 renal): 35.4 µM
- TGI (SF-268 CNS): > 100 µM
- TGI (SNB-19 CNS): > 100 µM
- TGI (M19-MEL melanoma): > 100 µM
- TGI (KM20L2 colon): 89.9 µM
- TGI (HOP-62 NSCLC): 21.4 µM
- TGI (NCI/ADR-RES ovarian): 64.4 µM
- TGI (SK-MEL-5 melanoma): 14.7 µM
- TGI (HOP-18 NSCLC): 8.79 µM
- TGI (RXF 393 renal): 53.2 µM
- TGI (SK-MEL-2 melanoma): 24.8 µM
- TGI (HOP-92 NSCLC): 16.6 µM
- TGI (UACC-257 melanoma): > 67.9 µM
- TGI (K-562 leukemia): > 100 µM
- TGI (HT29 colon): > 95.6 µM
- TGI (HCC-2998 colon): 62.1 µM
- TGI (UACC-62 melanoma): 24.3 µM
- TGI (SK-OV-3 ovarian): > 77.9 µM
- TGI (SNB-78 CNS): > 100 µM
- TGI (NCI-H23 lung): 40.7 µM
